Measurements reported in EP0888346B1, “CORALYNE ANALOGS AS TOPOISOMERASE INHIBITORS” (RUTGERS, THE STATE UNIVERSITY OF NEW JERSEY, priority 1996, dated 1997).
Where two headings read alike, the source gives them in different places.

How the values were obtained:
human topoisomerase I = target: T1, human topoisomerase I (Homo sapiens, UniProt P11387); assay: Topo I cleavage assay (plasmid YEpG DNA); assay type: biochemical; settings: concentration relative to camptothecin (CPT) = 1 producing the same cleavage on the plasmid DNA
T1 construct: 15 amino acid vector-derived fusion (pET-11a leader); made in house; host or cells: E. coli BL21(DE3)
T1 sequence (P11387 1-765): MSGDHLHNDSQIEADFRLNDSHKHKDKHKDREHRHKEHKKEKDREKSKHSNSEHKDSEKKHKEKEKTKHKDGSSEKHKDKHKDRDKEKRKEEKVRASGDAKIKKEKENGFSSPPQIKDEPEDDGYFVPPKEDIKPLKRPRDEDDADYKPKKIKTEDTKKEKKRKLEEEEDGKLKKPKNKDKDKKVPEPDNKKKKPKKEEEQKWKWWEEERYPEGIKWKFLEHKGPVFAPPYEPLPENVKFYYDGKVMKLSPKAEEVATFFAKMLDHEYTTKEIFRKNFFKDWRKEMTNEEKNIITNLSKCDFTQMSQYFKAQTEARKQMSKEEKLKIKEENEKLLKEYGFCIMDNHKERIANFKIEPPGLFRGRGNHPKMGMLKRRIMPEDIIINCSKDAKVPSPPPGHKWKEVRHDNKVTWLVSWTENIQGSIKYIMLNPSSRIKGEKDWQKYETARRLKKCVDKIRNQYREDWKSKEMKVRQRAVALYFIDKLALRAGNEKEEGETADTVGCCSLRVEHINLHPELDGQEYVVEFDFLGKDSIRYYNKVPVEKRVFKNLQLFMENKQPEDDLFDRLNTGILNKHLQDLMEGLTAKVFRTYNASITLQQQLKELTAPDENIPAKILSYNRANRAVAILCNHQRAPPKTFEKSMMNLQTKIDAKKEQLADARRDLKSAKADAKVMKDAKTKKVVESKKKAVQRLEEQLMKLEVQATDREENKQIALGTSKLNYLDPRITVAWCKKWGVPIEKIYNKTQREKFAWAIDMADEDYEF
Excerpt: To obtain large quantity of human topoisomerase I, the human topoisomerase I cDNA was cloned into the pET-11a vector, in which transcription of the cDNA is under the control of the inducible T7 promoter (Studier et al., Methods in Enzymol., Vol. 185:60-89, San Diego: Academic Press (1990)). Briefly, a 3.4 kb DNA fragment containing the entire coding sequence of human topoisomerase I and approximately 1 kb of untranslated region downstream of the stop codon was isolated from the plasmid YCpGAL1-hTOP1 (Bjornsti et al., Cancer Res. 49:6318-6323 (1989)) by cutting at the BamHI and EcoRI sites. The vector pET-11a was cut with the same restriction enzymes, dephosphorylated and ligated to the insert in the proper reading-frame downstream of the vector cloning site. The ligation mixture was used to transform E. coli, the correct clone pET1B was isolated (see figure 2A for the map) and its identity confirmed by restriction mapping. Since the translational start in pET is positioned at an upstream NdeI site, the expressed topoisomerase I has a 15 amino acid fusion at its N-terminus. pET1B was then transformed into E. coli BL21(DE3), and, upon induction with 0.4 mM IPTG for 1 hour, the bacterial lysate was analyzed by 10 % SDS-PAGE. Expression was confirmed by Western blotting using rabbit antibodies against human topoisomerase I. Isolation of the expressed protein was done by a simple procedure. Briefly, E. coli cells were lysed by repeated sonic bursts. The sonic extract was made in 1 M NaCl and 6% polyethylene glycol (PEG) to remove nucleic acids. The PEG supernatant was chromatographed directly on a hydroxyapatite column. Expressed human DNA topoisomerase I was eluted at the 0.6 M potassium phosphate step. The eluted enzyme was dialyzed against 50% glycerol, 30 mM potassium phosphate (pH 7.0), 1 mM dithiothreitol (DTT) and 0.1 mM EDTA and stored at -20°C.
(§1) Cleavage assays for the recombinant topoisomerases I and calf thymus topoisomerases I and II were done as described (Liu et al., J. Biol. Chem. 258:15365-15370 (1983)). The plasmid YEpG DNA used for the cleavage assays was prepared and labeled at its 3'-end using the published procedures.

[1] = system: camptothecin-resistant CPT-K5 cells; assay: MTT-microtiter plate tetrazolinium cytotoxicity assay (MTA), camptothecin-resistant cells
Protocol: The IC50 of the drugs tested were determined by the MTT-microtiter plate tetrazolinium cytotoxicity assay (MTA) (Mosmann, T., J. Immunol. Methods 65:55-63 (1983); Denizot et al., J. Immunol. Methods 89:271-277 (1986)). Human lymphoblast RPMI 8402 cells and their camptothecin-resistant CPT-K5 cells (Andoh et al., Proc. Natl. Acad. Sci., USA 84:5565-5569 (1987)) were kindly provided by Dr. Toshiwo Andoh (Aichi Cancer Center Research Institute, Nagoya, Japan). […] Cells (2000 cells/well, seeded in […] growth medium) were grown in suspension at 37°C in 5% CO2 and maintained by regular passage in RPMI medium supplemented with 10% heat inactivated fetal bovine serum, L-glutamine (2 mM), penicillin (100 U/ml), and streptomycin (0.1 mg/ml). The cells were exposed continuously for 4 days to different drug concentrations, and assayed at the end of the fourth day. Each concentration and the no drug control were repeated at least twice in 6 replica wells. The results were plotted and the IC50 then measured. The drug sensitive human epidermoid carcinoma KB 3-1 cell line and its vinblastine-selected multidrug-resistant variant KB-V1 cells (Akiyama et al., Genetics 11:117-126 (1985)) were kindly provided by Dr. Michael Gottesmann (National Cancer Institute). They were grown as monolayer cultures at 37°C in 5% CO2 and maintained by regular passage in Dulbecco's minimal essential medium supplemented with 10% heat inactivated fetal bovine serum. KB-V1 cells were maintained in the presence of […] vinblastine.

[2] = system: calf thymus topoisomerase II; assay: Topo II cleavage assay (plasmid YEpG DNA); assay type: biochemical; settings: concentration relative to VM-26 = 1 producing the same cleavage on the plasmid DNA
Excerpt: The plasmid pET11a and the E. coli strain BL21(DE3) used for enzyme expression were purchased from Novagen. IPTG was purchased from Sigma. The ECL system used for the Western blotting analysis of bacterial lysates was from Amersham (UK). All the restriction enzymes and Vent polymerase were from New England Biolabs. Mammalian topoisomerase II was isolated from calf thymus glands according to the published procedure (Halligan et al., J. Biol. Chem. 260:2475-2482 (1985)). The single copy yeast plasmids YCpGAL1 expressing various topoisomerase I genes in JN2-134 yeast strain were a kind gift of Dr. M-A. Bjornsti (Thomas Jefferson University, Philadelphia, PA). All bacterial and yeast media were from Difco (Detroit, MI), while cell culture media were purchased from Gibco-BRL (Gaithersburg, MD).
as §1

[3] = system: Human lymphoblast RPMI 8402 cells; assay: MTT-microtiter plate tetrazolinium cytotoxicity assay (MTA); assay type: cell-based
Excerpt: The results were plotted and the IC50 then measured.

[4] = Homo sapiens, CPT-K5, 96 h, read-out: Cytotoxicity IC50 CPT-K5
[5] = Homo sapiens, RPMI 8402, 96 h, read-out: Cytotoxicity IC50 RPMI

Row | Compound | Topo I-mediated DNA cleavage (REC, Relative Effective Concentration) (human topoisomerase I) | IC50 [1, 4] [µM] | Topo II-mediated DNA cleavage (REC, Relative Effective Concentration) [2] | IC50 [3, 5] [µM] | IC50 ([1]; cpt-k5 cells, 96 h) [µM] | IC50 ([3]; rpmi 8402 cells, 96 h) [µM] | cytotoxicity against RPMI 8402 cells (in words) [3] | IC50 ([3]; Homo sapiens, RPMI 8402, 96 h, 4 days of continuous drug exposure, read-out: Cytotoxicity IC50 RPMI) [µM]
1 | 8-Methyl-2,3,10,11-Tetramethoxydibenzo[a,g]quinolizinium acetosulfate [Compound 2a] | 10 |  | >1000 |  | 20 | 4.9 |  | 
2 | 6,7-Dimethoxy-1, 2-dimethyl-3-(3, 4-dimethoxyphenyl)isoquinolinium methosulfate [Compound 14a] | >1000 |  | >1000 |  | 39 | 43 |  | 
3 | COc1cc2cc3c4ccc(OC)c(OC)c4cc[n+]3cc2cc1OC.[Cl-] [Compound 10b, 3,4,10,11-Tetramethoxydibenzo[a,g]quinolizinium chloride] | >1000 | 5.2 | 100 | 2.6 |  |  |  | 
4 | 8-Methyl-3,4,10,11-tetramethoxydibenzo[a,g]quinolizinium acetosulfate [Compound 2b] | >1000 |  | 100 |  | 2 | 0.4 |  | 
5 | COc1cc([C@@H]2c3cc4c(cc3[C@@H](O[C@@H]3O[C@@H]5CO[C@@H](c6cccs6)O[C@H]5[C@H](O)[C@H]3O)[C@H]3COC(=O)[C@H]23)OCO4)cc(OC)c1O [VM-26, reference compound] | >1000 | 0.5 | 1 | 0.3 |  |  |  | 
6 | COc1cc2c(cc1OC)-c1cc3cc(OC)c(OC)cc3c(C)[n+]1CC2 [Compound 7a, 5,6-Dihydro-8-methyl-2,3,10,11-tetramethoxydibenzo[a,g]quinolizinium acetosulfate] | 5 | > 20 | >1000 | 5.9 |  |  |  | 
7 | COc1ccc(Cc2nccc3cc(OC)c(OC)cc23)cc1OC [Compound 9a] | >1000 | 29 | 1000 |  |  |  |  | 24
8 | COc1cc2cc3[n+](cc2cc1OC)CCc1c-3ccc(OC)c1OC.[Cl-] [Compound 8b, 5,6-Dihydro-3,4,10,11-tetramethoxydibenzo[a,g]quinolizinium chloride] | >1000 | 6.4 | 1000 | 9 |  |  |  | 

More lines, main results first:

Row | Topo I-mediated DNA cleavage (REC, Relative Effective Concentration) (human topoisomerase I) | Compound | IC50 [1, 4] [µM] | Topo II-mediated DNA cleavage (REC, Relative Effective Concentration) [2] | IC50 [3, 5] [µM] | IC50 ([1]; cpt-k5 cells, 96 h) [µM] | IC50 ([3]; rpmi 8402 cells, 96 h) [µM] | cytotoxicity against RPMI 8402 cells (in words) [3] | IC50 ([3]; Homo sapiens, RPMI 8402, 96 h, 4 days of continuous drug exposure, read-out: Cytotoxicity IC50 RPMI) [µM]
9 | 10 | COc1cc2cc3c4ccc5c(c4cc[n+]3cc2cc1OC)OCO5.[Cl-] [Compound 10c, 3,4-Methylenedioxy-10,11-dimethoxydibenzo[a,g]quinolizinium chloride] | 6.8 | 2 | 0.8 |  |  |  | 
10 | >1000 | COc1ccc(Cc2nccc3c(OC)c(OC)ccc23)cc1OC.Cl [Compound 9b, 5,6-Dimethoxy-1-(3,4-dimethoxybenzyl)isoquinoline hydrochloride] | 15 | 1000 | 15 |  |  |  | 
11 | 1000 | 6,7-Dihydroxy-1,2-dimethyl-3-(3, 4-dihydroxyphenyl)isoquinolinium methosulfate [Compound 15] |  | >1000 |  | > 122 | 7.3 | appreciable cytotoxicity | 
12 | 1000 | COc1cc2cc(-c3ccc4c(c3)OCO4)nc(C)c2cc1OC [Compound 12b, 6,7-Dimethoxy-1-methyl-3-(3,4-methylenedioxyphenyl)isoquinoline] | 31 | >1000 | 22 |  |  |  | 
13 | 1000 | COc1cc2cc3c4cc(OC)c(OC)cc4cc[n+]3cc2cc1OC.[Cl-] [Compound 10a, 2,3,10,11-Tetramethoxydibenzo[a,g]quinolizinium chloride] | > 32 | 10 | 13 |  |  |  | 
14 | 1000 | COc1cc2cc3[n+](c(C)c2cc1OC)CCc1c-3ccc(OC)c1OC [Compound 7b, 5,6-Dihydro-8-methyl-3,4,10,11-tetramethoxydibenzo[a,g]quinolizinium acetosulfate] | 14 | 1000 | 6.9 |  |  |  | 
15 | >1000 | COc1ccc(-c2cc3cc(OC)c(OC)cc3c(C)n2)cc1OC [Compound 12a, 6,7-Dimethoxy-1-methyl-3-(3,4-dimethoxyphenyl)isoquinoline] | 24 |  | 13 |  |  |  | 
16 | >1000 | COc1ccc(Cc2nccc3c4c(ccc23)OCO4)cc1OC [Compound 9c, 5,6-Methylenedioxy-1-(3,4-dimethoxybenzyl)isoquinoline] | 15 | >1000 | 9.3 |  |  | appreciable cytotoxicity | 
